# In US6372940B1, “Process for the preparation of non-hygroscopic salts of L(−)-carnitine” (Sigma-Tau Industrie Farmaceutiche Riunite S.p.A, priority 1999, dated 2002):
# Assays:
# [1] = Tapped density of the granulate (U.S. Pharmacopoeia method); type: physicochemical; conditions: for tapped density of the granulate: product of the humid melting process of the invention, USP 23 NF 18 method
# Source text: It is in fact known that an inadequately low density (for example, for L(−)-carnitine acid fumarate, a tapped density value below 0.7 g/mL) provides a too light and flaky product which involves serious processability problems. The bulk density is not a reliable parameter for granulated or powdery products, in that even imperceptible perturbations of the test sample can give rise to remarkably different bulk density values. For the characterization of the density of said materials the tapped density is preferably used, which is the limit density obtained after tapping down the material by subjecting a graduated cylinder containing the granulate or powder to strokes, namely by hoisting the cylinder to a fixed height then dropping it for a fixed number of times. The tapped density is usually determined according to the method described in U.S. Pharmacopoeia, National Formulary, Supplement, USP 23, NF 18, Nov. 15, 1997, pages 3976-3977. Said method is herein incorporated by reference. The material is passed through a 1 mm (n. 18 mesh) sieve to crush any agglomerates formed during storage. About 100 g (M) of the test material are placed without tapping down in a 250 mL graduated cylinder. Using a suitable device, the cylinder is hoisted then dropped under the action of its own weight, from a height of 14+2 mm, with a 300 times/minute fall frequency. The volume of the material after a first 500 fall cycle is then measured. […] The tapped density, in g/mL, is expressed by the formula: M/Vf.
# [2] = Hygroscopicity and storage behaviour of the granulate; type: physicochemical; conditions: ground to the desired particle size
Compound,tapped density of the granulate [1] [g/mL],hygroscopicity of the granulate [2],stability of the granulate in time (packing and/or aggregation) [2],Physico-chemical characteristics of the final compound ([1]; prepared in the presence of a crystallization initiator)
"C[N+](C)(C)C[C@H](O)CC(=O)O.C[N+](C)(C)C[C@H](O)CC(=O)O.O=C([O-])C(O)C(O)C(=O)[O-] [Example 3, L(−)-carnitine Tartrate (2:1)]",0.83,,,
L(−)-carnitine Acid Fumarate [Example 1],0.84,non-hygroscopic,remained unchanged in time without undergoing packing and/or aggregation,
L(−)-carnitine Acid Fumarate [Example 2],,,,the same as those obtained in the preparation of Example 1
